# Source: US10774121B2, “Methods and compositions for treating neurodegenerative disorders and Alzheimer's Disease and improving normal memory” (The Regents of the University of California, priority 2006, dated 2020)
# Assays:
# [1] = system: tyrosine kinase activity; assay: Tyrosine kinase ELISA on extracts of β-APP-transfected DAMI cells mixed with PS-1-transfected DAMI cells; format: cell-based, human
# Method: All experiments after those in FIG. 7 (with the exception of FIG. 9a, Panel 4) were carried out with appropriately transfected DAMI cells only. Equal numbers (0.5×10^6/ml) of β-APP-transfected DAMI cells and either PS-1- or PS-2-transfected DAMI cells were mixed gently at room temperature, exactly as described (Dewji and Singer, 1998). In control experiments, DAMI cells transfected with pcDNA3 alone were substituted for the β-APP transfected cells.
# At several times between 0 and 20 min after mixing, an aliquot of each cell mixture was rapidly centrifuged, the culture medium was removed, and the cell pellet was suspended in 200 μl of extraction buffer (50 mM Tris, pH 8.0/150 mM NaCl/0.5% Nonidet-P40) containing protease inhibitors (1 mM 4-(2-aminoethyl) benzene sulfonyl fluoride hydrochloride (AEBSF)/1 μg/ml antipain/0.1 μg/ml pepstatin A/0.1 μg/ml leupeptin) and the phosphatase inhibitor sodium orthovanadate (0.1 mM). The mixture was sonicated with three bursts of 20 sec duration and then centrifuged. These extract supernatants were then used for Western blot and ELISA analyses as described below.
# ELISAs Protein tyrosine kinase activity was measured by an Enzyme Linked Immunosorbent Assay (ELISA) using a tyrosine kinase assay kit (Upstate Biotechnology). […]
# [2] = biological target: Gαo (Mus musculus, UniProt P18872); assay: 35S-GTPγS incorporation (G-protein activation) in β-APP-only:PS-1-only co-cultures, immunoprecipitation with Gαo antibody K-20; format: cell-based; settings: β-APP:PS-1 co-culture, Peptide 1-80 0-3 μM
# Gαo, sequence (P18872 whole entry): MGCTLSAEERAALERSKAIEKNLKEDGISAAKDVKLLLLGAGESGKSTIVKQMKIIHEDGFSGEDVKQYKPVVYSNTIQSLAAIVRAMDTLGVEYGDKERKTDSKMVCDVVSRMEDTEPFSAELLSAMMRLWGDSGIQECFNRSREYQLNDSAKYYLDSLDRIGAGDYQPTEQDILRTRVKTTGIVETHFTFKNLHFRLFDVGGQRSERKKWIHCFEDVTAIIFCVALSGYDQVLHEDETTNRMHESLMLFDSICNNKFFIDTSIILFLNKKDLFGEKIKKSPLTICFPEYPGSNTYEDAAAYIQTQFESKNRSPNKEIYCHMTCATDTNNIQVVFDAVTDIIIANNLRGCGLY
# Description: Two cell types were generated: ES-derived mouse cells (PS-1^−/−; PS-2^−/−) that expressed only small amounts of endogenous β-APP but no PS, were transiently transfected with cDNA for human β-APP to produce cells expressing excess human β-APP over mouse β-APP, and no PS-1 or PS-2 (β-APP-only cells). Embryonic (E18) mouse primary fibroblasts derived from β-APP-null mice, expressing only small amounts of endogenous PS-1 and PS-2, were transfected with cDNAs for human PS-1 to produce cells expressing excess human over mouse PS-1 but no β-APP (PS-1-only cells). […]
# Co-cultures of β-APP-only and PS-1-only cells were carried out in the presence and absence of Peptide 1-80 (0-3 μM). ^35S-GTPγS assays were carried out on extracts as a measure of G-protein activation. The Aβ produced in these co-culture extracts was determined by ELISA. […]
# ^35S-GTPγS Assays: Extract (100 μg of total protein) was mixed with an equal volume of GTPγS Buffer B (50 mM HEPES/NaOH pH 7.4, 40 μM GDP, 50 mM MgCl2, 100 mM NaCl) and reacted with 50 nM ^35S-GTPγS (1250 Ci/mmol, Perkin Elmer, Waltham, Mass.) for 60 min at RT. […] The agarose beads were suspended in scintillation fluid (CytoScint, ICN) (5 ml) and counted in a Beckman Coulter LS 6000 SC scintillation counter for 3 min.
# [3] = system: Aβ production; assay: ELISA of Aβ produced in β-APP-only:PS-1-only co-culture extracts; format: cell-based, mouse; settings: β-APP:PS-1 co-culture, Peptide 1-80 0-3 μM
# Method: Co-cultures of β-APP-only and PS-1-only cells were carried out in the presence and absence of Peptide 1-80 (0-3 μM). ^35S-GTPγS assays were carried out on extracts as a measure of G-protein activation. The Aβ produced in these co-culture extracts was determined by ELISA.
# ES-derived mouse cells (PS-1^−/−; PS-2^−/−) that expressed only small amounts of endogenous β-APP but no PS, were transiently transfected with cDNA for human β-APP to produce cells expressing excess human β-APP over mouse β-APP, and no PS-1 or PS-2 (β-APP-only cells). Embryonic (E18) mouse primary fibroblasts derived from β-APP-null mice, expressing only small amounts of endogenous PS-1 and PS-2, were transfected with cDNAs for human PS-1 to produce cells expressing excess human over mouse PS-1 but no β-APP (PS-1-only cells). The minigenes were co-transfected with PS-1 in the PS-only APP−/− fibroblasts to inhibit the endogenous mouse Gα under investigation in those cells. PS−/− ES cells were separately transfected with human β-APP cDNA (β-APP only cells) and the two types of cells were co-cultured for 24 hours. Cells were harvested and detergent-buffer extracts of the co-cultures were prepared. Determination of [^35S]GTPγS incorporation in these cultures was carried out in the presence and absence of each minigene: Aliquots each containing 100 μg total protein were reacted with ^35S-GTPγS and immunoprecipitation of each ^35S-GTPγS-treated extract was carried out with antibodies directed to the particular Gα under investigation. Specificity of binding of a particular Gα to PS-1 was established by blocking of GTPγS incorporation in the presence of the specific minigene inhibitor.
# Co-culture of β-APP-only with PS-1-only cells was carried out as described above.
# ELISA for the production of Aβ1-40 was carried out using sandwich ELISA kits (Biosource).
compound,measurement,setting,value
CC(C)(C)n1nc(-c2ccc(Cl)cc2)c2c(N)ncnc21 [PP2],tyrosine kinase activity after mixing,[1]; 10 nM PP2,inhibition
CO[C@H]1[C@@H](OC)C[C@H](C)[C@@H](OC)C2=CC(=O)C=C(NC(=O)/C(C)=C/C=C\[C@H](OC)[C@@H](OC(N)=O)/C(C)=C/[C@@H]1C)C2=O [herbimycin A],increase in tyrosine kinase activity at 8-10 mins after mixing,[1]; 10 μg/ml herbimycin A,completely inhibited
Peptide 1-80: fusion construct of the water-soluble entire 80 amino acid NH2-terminal domain of PS-1,"G-protein (Gαo) activation, 35S-GTPγS assay",[2],inhibited by Peptide 1-80 in a dose-dependent manner
same,Aβ production by ELISA,[3],inhibited by Peptide 1-80 in a dose-dependent manner
